Literature values, collected in patent US20050019354A1, “Topical benfotiamine treatments” (priority 2003, published 2005).

Columns and labels:
transketolase = biological target: T1, transketolase (Homo sapiens, UniProt P29401)
T1 sequence (P29401 1-623): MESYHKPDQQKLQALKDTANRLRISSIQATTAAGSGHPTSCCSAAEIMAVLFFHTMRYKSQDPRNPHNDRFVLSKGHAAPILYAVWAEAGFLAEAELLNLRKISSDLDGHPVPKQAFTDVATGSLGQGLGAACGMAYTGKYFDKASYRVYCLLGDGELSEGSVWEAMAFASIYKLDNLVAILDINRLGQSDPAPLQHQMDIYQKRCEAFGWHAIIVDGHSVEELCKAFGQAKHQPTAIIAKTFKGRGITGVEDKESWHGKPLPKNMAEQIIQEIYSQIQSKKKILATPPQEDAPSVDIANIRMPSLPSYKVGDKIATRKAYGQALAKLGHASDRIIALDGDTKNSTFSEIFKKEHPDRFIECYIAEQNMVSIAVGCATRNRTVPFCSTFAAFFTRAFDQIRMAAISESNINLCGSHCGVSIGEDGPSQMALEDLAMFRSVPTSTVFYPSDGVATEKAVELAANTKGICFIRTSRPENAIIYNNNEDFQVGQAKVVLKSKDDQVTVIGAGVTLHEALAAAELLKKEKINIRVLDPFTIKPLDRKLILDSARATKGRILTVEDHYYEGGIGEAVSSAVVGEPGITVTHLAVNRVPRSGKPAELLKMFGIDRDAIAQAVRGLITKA

[1] = system: retinopathy in diabetic rats

In the case of `C/C(=C(\CCOP(=O)(O)O)SC(=O)c1ccccc1)N(C=O)Cc1cnc(C)nc1N` [Benfotiamine, S-Benzoylthiamine-O-Monophosphate], the “increase of transketolase activity” value (transketolase) is given as 300% and the effect on retinopathy [1] is given as “prevented retinopathy”.
